Where “and” joins values, the source holds several entries; their conditions need not be identical. Equal entries are not always repeated. No end group written: not given here.
How the values were obtained:
[1] = Glucose level in db/db mice treated for 5 weeks; format: in vivo; settings: for Glucose level in peripheral blood (nonfasting): 5 mg/kg s.c./i.v. for 5 weeks, individual mice; for Glucose level in peripheral blood, group mean: 5 mg/kg, high values set to 600 mg/dL
Protocol: Homozygous Leptin receptor-deficient diabetic db/db male mice—BKS.Cg-Dock7m+/+Leprdb/J (Jackson Laboratories, stock #000642) become obese at 3-4 weeks of age. Elevation of plasma insulin usually occurs at 10-14 days and elevation of blood glucose at 6-8 weeks of age. We examined the effects of Compound X on the onset of hyperglycemia in db/db mice. Continuous Compound X treatments were performed during 5 weeks.
At day 0, homozygous 7-week-old female db/db mice were divided into 2 experimental groups (n=10); both groups received subcutaneous injections for 5 consecutive days: Group 1 received 0.9% saline and group 2 received 5 mg/kg Compound X. The following week mice received intravenous injections for 4 consecutive days. The next two weeks mice received subcutaneous injections 3 times per week and the last week of treatment was given intravenously 3 times per week.
Nonfasting blood glucose levels were measured weekly from tail bleeds with a handheld glucometer. Animal body weights were taken throughout the course of the study.
At the end of experiment, serum from blood was obtained from the retro-orbital sinus after an overnight fast.

HSC and HPC = assay: CFU-GM / CFU-GEMM colony assay after 4 daily injections of G-CSF and Compound X; format: in vivo, mice; settings: for CFU-GEMM numbers, MEAN / CFU-GM numbers, MEAN / CFU-GEMM numbers / CFU-GM numbers: 5 μg/mouse each agent s.c. daily for 4 days; for CFU-GEMM numbers / CFU-GM numbers: individual dishes; for Fold increase in number of CFU-GM / Fold increase in number of CFU-Mix (CFU-GEMM): multiple injections, 5 μg/mouse each agent
Protocol: Compound X and Neupogen (rG-CSF Amgen, lot# P043601) were diluted in PBS. Mice received subcutaneous injections of PBS, Compound X (5 μg/mouse), G-CSF (5 μg/mouse) or Compound X (5 μg/mouse)+G-CSF (5 μg/mouse) for four consecutive days. […] Mononuclear cells were isolated by density gradient separation from pooled blood. […] Blood was also collected and processed on day 8 for colony assay. Results are shown in Tables 10, 11, and 12 and in FIG. 5.

FPHFDLSHGSAQV [Compound X, tridecapeptide that acts on stem cells]
Glucose level in peripheral blood (nonfasting) ([1]; Week 1): 160 mg/dL and 121 mg/dL and 122 mg/dL and 235 mg/dL and 117 mg/dL and 178 mg/dL and 248 mg/dL and 119 mg/dL and 181 mg/dL and 194 mg/dL | Glucose level in peripheral blood (nonfasting) ([1]; Week 2): 481 mg/dL and 377 mg/dL and 177 mg/dL and 472 mg/dL and 273 mg/dL and 452 mg/dL and 500 mg/dL and 189 mg/dL and 502 mg/dL and 430 mg/dL | Glucose level in peripheral blood (nonfasting) ([1]; Week 3): 541 mg/dL (2×) and 447 mg/dL and 271 mg/dL and HI (High/Hi = ≧600 mg/dL, the maximum possible glucometer reading) and 546 mg/dL and 496 mg/dL and 474 mg/dL and 267 mg/dL and 463 mg/dL | Glucose level in peripheral blood (nonfasting) ([1]; Week 4): 398 mg/dL and 416 mg/dL and 206 mg/dL and 599 mg/dL and 440 mg/dL and 458 mg/dL and 591 mg/dL and 257 mg/dL and HI (High/Hi = ≧600 mg/dL, the maximum possible glucometer reading) and 549 mg/dL | Glucose level in peripheral blood (nonfasting) ([1]; Week 5): 481 mg/dL and 443 mg/dL and 256 mg/dL and 527 mg/dL and 525 mg/dL and 582 mg/dL and 588 mg/dL and 467 mg/dL and HI (High/Hi = ≧600 mg/dL, the maximum possible glucometer reading) (2×) | Glucose level in peripheral blood (nonfasting) ([1]; Week 6): 400 mg/dL and 541 mg/dL and 265 mg/dL and 537 mg/dL and 576 mg/dL and HI (High/Hi = ≧600 mg/dL, the maximum possible glucometer reading) (4×) and 457 mg/dL | Glucose level in peripheral blood, group mean ([1]; Week 1): 168 ± 15 mg/dL | Glucose level in peripheral blood, group mean ([1]; Week 2): 385 ± 40 mg/dL | Glucose level in peripheral blood, group mean ([1]; Week 3): 465 ± 36 mg/dL | Glucose level in peripheral blood, group mean ([1]; Week 4): 451 ± 44 mg/dL | Glucose level in peripheral blood, group mean ([1]; Week 5): 506 ± 33 mg/dL | Glucose level in peripheral blood, group mean ([1]; Week 6): 517 ± 35 mg/dL | nonfasting glucose level compared to Saline control ([1]; at all timepoints): decreased glucose level | mice with lower than 200 mg/dL fasting serum glucose ([1]; end of the 5-week study): 2 mice | mice with overnight fasting serum glucose <300 mg/dL ([1]; end of the 5-week study, vehicle 3/10): 7/10 | CFU-GEMM numbers, MEAN (HSC and HPC; Day 4): 2.4 per 100000 mononuclear cells | CFU-GM numbers, MEAN (HSC and HPC; Day 4): 9.6 per 100000 mononuclear cells | CFU-GEMM numbers (HSC and HPC; Day 4): 3 per 100000 mononuclear cells (2×) and 0 per 100000 mononuclear cells and 4 per 100000 mononuclear cells and 2 per 100000 mononuclear cells | CFU-GM numbers (HSC and HPC; Day 4): 7 per 100000 mononuclear cells and 6 per 100000 mononuclear cells and 13 per 100000 mononuclear cells and 11 per 100000 mononuclear cells (2×) | CFU-GEMM numbers, MEAN (HSC and HPC; Day 8): 0.6 per 100000 mononuclear cells | CFU-GM numbers, MEAN (HSC and HPC; Day 8): 0.6 per 100000 mononuclear cells | CFU-GEMM numbers (HSC and HPC; Day 8): 1 per 100000 mononuclear cells (3×) and 0 per 100000 mononuclear cells (2×) | CFU-GM numbers (HSC and HPC; Day 8): 1 per 100000 mononuclear cells (3×) and 0 per 100000 mononuclear cells (2×) | number of CFU-GEMM or CFU-GM (HSC and HPC; 5 μg/mouse s.c. daily for 4 days, day 8): no difference found | Fold increase in number of CFU-GM (HSC and HPC; Day 4): 1.9 Fold | Fold increase in number of CFU-Mix (CFU-GEMM) (HSC and HPC; Day 4, 1 hr after the last injection): 1.7 Fold | Fold increase in number of CFU-GM (HSC and HPC; Day 8): 0 Fold | Fold increase in number of CFU-Mix (CFU-GEMM) (HSC and HPC; Day 8): 0 Fold
